Data set [1] can be described thus: Hydrodynamic size and size distribution of nanoprodrugs by dynamic light scattering. The data set is classed as physicochemical. How it is done: Briefly, 25 mg of the compounds were dissolved in acetone (5 ml) containing polysorbate 80 (0.1% w/v). […] Following 15 min of magnetic stirring, the acetone was removed under reduced pressure at room temperature.
The hydrodynamic size measurement and size distribution of the nanoprodrugs were performed by the dynamic light scattering (DLS) using a Coulter N4-Plus Submicron Particle Sizer (Coulter Corporation, Miami, Fla., USA). The nanoprodrugs were diluted in deionized water and the analysis was performed at a scattering angle of 90° and at a temperature of 25° C. Three separate preparations were analyzed for each nanoprodrug. For each preparation mean diameter and mean polydispersity index (P.I.) of three determinations were calculated. The mean diameter±standard deviation (S.D.) and P.I.±S.D. were calculated from the three mean diameters and mean P.I.'s of the three separate preparations.

For data set [2], the system named is human glioma cells (U87-MG). Briefly: WST-1 cell viability assay, glioma cells. The data set is classed as cell-based. The following applies: free ibuprofen up to 600 μM, 72 h. The procedure: Growth inhibition was evaluated by the WST-1 (water-soluble tetrazolium salt) colorimetric assay (Boehringer Mannheim) according to the manufacturer's instructions. […] Cells were incubated at 37° C. for 1-4 h, and the absorbance was read by an ELISA plate reader at 450 nm. The cell viability was calculated as follows: Cell viability (%)=(Abss/Absc)×100, where Abss is the absorbance of cells treated with drugs and Absc is the absorbance of control cells incubated with cell culture medium only (See FIG. 9.).

Data set [3] concerns human glioma cells (U87-MG). Description: Cell death by propidium iodide uptake. Type of data set: cell-based. Particulars: 200 μM of ibuprofen in DMSO, 72 h.
Procedure: The human glioma cells (U87-MG) were seeded at 1×10^5 cells per well in 6-well plates, and allowed to grow for 24 h. The medium was changed and the cells were treated with 50 or 100 μM of nanoprodrug of Ibu2TEG or 200 μM of ibuprofen dissolved in DMSO for 72 h. Control cultures were treated with DMSO or cell culture medium only. After the end of treatment, glioma cells were incubated with 5 μM of propidium iodide (Sigma) for 1 h. Propidium iodide fluorescence was excited at 515-560 nm using an inverted microscope fitted with a standard rhodamine filter.
In data set [4] the test system is esterase. Description: Recovery of NSAIDs from oxidized nanoprodrugs (esterase hydrolysis). Type of data set: in vitro ADME, porcine. Particulars: 250 μM, HOCl 500 μM 2 min, esterase 2 U/ml, overnight 37° C. The procedure:
The recovery yield of NSAIDs was determined for oxidized and non-oxidized nanoprodrugs. The nanoprodrugs prepared from ALA-TEG-Ibu, ALA-TEG-Npx and ALA-TEG-Ind (250 μM in PBS, pH 7.4) were incubated in the presence and absence of HOCl (500 μM) for 2 min. Esterase (2 U/ml) was added and mixed by pipetting up and down. In order to determine the total amount of available NSAIDs from the oxidized and non-oxidized nanoprodrugs, the hydrolysis was carried out overnight at 37° C. The reaction mixture was centrifuged for 10 min at 20,000×g and the hydrolyzed NSAIDs in the supernatant were quantified using RP-HPLC. Error bar represents±S.D. calculated from triplicate determinations.

The test system of data set [5] is esterase. Briefly: Effect of nanoprodrug oxidation on the rate of enzymatic hydrolysis. Type of data set: in vitro ADME, porcine. The following applies: determined immediately after addition of esterase 2 U/ml; HOCl 500 μM 2 min. How it is done:
In order to evaluate the effect of prodrug oxidation on the rate of enzymatic hydrolysis, the initial hydrolysis rate of NSAIDs from the oxidized and non-oxidized nanoprodrugs was determined. The nanoprodrugs prepared from ALA-TEG-Ibu, ALA-TEG-Npx and ALA-TEG-Ind (250 μM in PBS, pH 7.4) were incubated in the absence and presence of HOCl (500 μM) for 2 min. Esterase (2 U/ml) was added and mixed by pipetting up and down. The reaction mixture was centrifuged immediately after addition of esterase and the supernatant was quickly transferred into a new tube and incubated further to complete hydrolysis. The hydrolyzed NSAIDs in the supernatant were quantified using RP-HPLC as described above. Error bar represents±S.D. calculated from triplicate determinations.
To evaluate the sequence of hydrolysis after oxidation, the nanoprodrugs were incubated in presence of HOCl (500 μM) for 2 min and esterase (2 U/ml) was added. The reaction mixture was mixed by pipetting up and down and immediately centrifuged for 10 min at 20,000×g. The supernatant was analyzed using RP-HPLC as described above.

Another data set relates to Esterase (porcine liver). Description: Enzymatic destabilization / hydrolysis of nanoprodrugs by esterase. The data set is classed as in vitro ADME. Particulars: esterase 5 U/ml; for Parent drugs hydrolyzed / released from the nanoprodrugs after 1 h incubation / Concentration of the released drugs / Drug release: nanoprodrug 500 μM; for Concentration of the released drugs / Drug release: 60 min, room temperature, PBS pH 7.4; for Concentrations of the released drugs after 12 h incubation: compared with ALA-TEG-Npx and ALA-TEG-Ibu after 1 h. How it is done:
Esterase (porcine liver, Sigma, code E3019) was added to the final concentration of 5 U/ml. For the nanoprodrugs from the three bifunctional prodrugs, ALA-TEG-Ibu, ALA-TEG-Npx and ALA-TEG-Ind, the reduction in turbidity was monitored using ultraviolet/visible spectrometer (Bio-Rad SmartSpec™ 3000) for 60 min at room temperature with a wavelength λ=500 nm and 1 min acquisition interval. For the nanoprodrugs from the three dimeric prodrugs, Ibu2TEG, Npx2TEG and Ind2TEG, the samples were taken during the incubation for 12 h at room temperature with appropriate time interval and the reduction in turbidity was measured.
To determine the amount of enzymatically hydrolyzed NSAIDs, samples were centrifuged for 10 min at 20,000×g and the supernatants were analyzed by RP-HPLC using a C18 reversed phase column (Section 2.5).
The concentration of the NSAIDs was determined using calibration curves generated in the concentration range of 25-500 μM. Error bar represents±S.D. calculated from triplicate determinations. The stability of the nanoprodrugs under the experimental conditions in the absence of esterase was evaluated as follows. The purified nanoprodrugs were suspended in PBS (pH 7.4) and incubated for 12 h at room temperature. The amount of the intact prodrugs was determined using RP-HPLC as described above.

Data set [6] is described as follows: Oxidative destabilization of nanoprodrugs (turbidity at 500 nm after HOCl). Particulars: nanoprodrug 250 μM, HOCl 25-1000 μM. The procedure: The nanoprodrugs were purified by centrifuging three times at 20,000×g for 10 min at 25° C. and resuspending each time in the same volume of deionized water. The purified nanoprodrugs were resuspended in phosphate buffered saline (PBS, pH 7.4) to give the final concentration of 250 μM NSAID derivatives. The concentration of HOCl in the diluted commercial sodium hypochlorite solution was determined spectrophotometrically (ε292=350 M^−1 cm^−1) (Morris, 1966). HOCl was added to the suspension of nanoprodrugs to give the final concentration of 25-1000 μM and the reduction in turbidity was measured immediately using ultraviolet/visible spectrometer (Bio-Rad SmartSpec™ 3000, Hercules, Calif., USA) at room temperature with a wavelength λ=500 nm.

Data set [7] has as its system U87-MG human glioma cell line. Particulars: nanoprodrug 10 to 100 μM, 3 days.
Procedure: The cells were grown and maintained in Minimum Essential Medium (MEM) (Invitrogen) containing antibiotics 100 U/mL penicillin (Invitrogen) and 100 μg/mL streptomycin (Invitrogen), and supplemented with 10% fetal bovine serum (FBS) (Invitrogen). Cells were kept at 37° C. in a humidified atmosphere including 5% CO2.
Nanoprodrugs were prepared from the monomeric derivative Ibu2TEG (25 mg) as described in Example 6 and dialyzed in phosphate buffered saline (PBS) over night. The human glioma cells (U87-MG) were seeded in a 25 cm^2 flask at 2.5×10^5 cells/5 mL and allowed to grow for 24 h. The medium was changed and the cells were treated with nanoprodrugs at final concentration ranging from 10 to 100 μM for the monomeric derivative Ibu2TEG. After a 3-day treatment, the medium was remove, cells were washed with PBS and 1 mL of 0.25% trypsin/EDTA (Gibco) was added to detach the cells. […] Control culture was treated with PBS.
Setting [8] is: another NSAID nanosphere, Table 2C.
Where [9] appears, read: nanoprodrugs of the derivative, Table 2A, n = 3, ±S.D., DLS 25° C.
The mark [10] stands for this setting: polydispersity index of nanoprodrugs, Table 2A, n = 3, ±S.D.
Setting [11] is: hydrodynamic size of additional nanospheres, Table 2B.
Where [12] appears, read: polydispersity index of additional nanospheres, Table 2B.

With `O=C(OCCOCCOCCOCCOC(=O)c1ccccc1Nc1cccc(C(F)(F)F)c1)c1ccccc1Nc1cccc(C(F)(F)F)c1` [(FA)2TEG, Tetraethylene glycol(flufenamic acid)2], in data set [1] (setting [8]), the P.I. was determined as 0.11 and the “Size (nm)” value is 118 ± 32 nm.
`COc1ccc2c(c1)c(CC(=O)OCCOCCOCCOCCOC(=O)Cc1c(C)n(C(=O)c3ccc(Cl)cc3)c3ccc(OC)cc13)c(C)n2C(=O)c1ccc(Cl)cc1` [Ind2TEG]: in data set [1] (setting [9]), the “Size (nm)” value is on record as 159 ± 10 nm. Further, in data set [1] (setting [10]), the P.I. is 0.06 ± 0.03.
With `CC(C)Cc1ccc(C(C)C(=O)O)cc1` (stereo not drawn) [ibuprofen], in data set [2], the “Effect on cell viability” value is recorded as “did not show any significant effect”. In addition, the “Propidium iodide incorporation (cell death)” value in data set [3] is recorded as “no significant propidium iodide incorporation”.
Turning to `O=C(CCCCC1CCSS1)OCCOCCOCCOCCOC(=O)c1ccccc1Nc1cccc(C(F)(F)F)c1` (stereo not drawn) [ALA-TEG-FA, (α-Lipoic acid)-tetraethylene glycol(flufenamic acid)], the “Size (nm)” value in data set [1] (setting [11]) came out at 149 ± 36 nm. For the same compound, the P.I. in data set [1] (setting [12]) is reported as 0.08.
Regarding `CC(C)Cc1ccc(C(C)C(=O)OCCOCCOC(=O)CCCCC2CCSS2)cc1` (stereo not drawn) [ALA-DEG-Ibu, (α-Lipoic acid)-diethylene glycol(ibuprofen)], the “Size (nm)” value in data set [1] (setting [11]) is 210 ± 53 nm. In addition, in data set [1] (setting [12]), the P.I. turned out to be 0.09.
As to `COc1ccc2cc([C@H](C)C(=O)OCCOCCOC(=O)CCCCC3CCSS3)ccc2c1` (stereo partly drawn) [ALA-DEG-Npx, (α-Lipoic acid)-diethylene glycol(naproxen)], the “Size (nm)” value in data set [1] (setting [11]) is given as 274 ± 56 nm. Further, the P.I. in data set [1] (setting [12]) was 0.05.
Regarding `CC(C)Cc1ccc(C(C)C(=O)OCCOCCOCCOCCOC(=O)CCCCC2CCSS2)cc1` (stereo not drawn) [ALA-TEG-Ibu], the “Size (nm)” value in data set [1] (setting [9]) amounted to 251 ± 13 nm. In addition, in data set [1] (setting [10]), the P.I. amounted to 0.10 ± 0.03. Besides, the “Released parent drugs from the oxidized nanoprodrugs in comparison with non-oxidized controls” value with esterase [4] turned out to be 80%. The “Increase of the amount of hydrolyzed drugs from oxidized vs non-oxidized nanoprodrugs” value with esterase [5] was “approximately two”. In the data set on Esterase (porcine liver), the “Parent drugs hydrolyzed / released from the nanoprodrugs after 1 h incubation” value is given as “approximately 90%”, the “Concentration of the released drugs” value is 417 µM and the Drug release amounted to 83%.
Turning to `COc1ccc2c(c1)c(CC(=O)OCCOCCOCCOCCOC(=O)CCCCC1CCSS1)c(C)n2C(=O)c1ccc(Cl)cc1` (stereo not drawn) [ALA-TEG-Ind], the “Size (nm)” value in data set [1] (setting [9]) worked out at 253 ± 25 nm. Besides, the P.I. in data set [1] (setting [10]) came to 0.09 ± 0.05. Also, the “Induction phase of oxidative destabilization” value in data set [6] is “longest induction phase”.
For `CC(C)Cc1ccc(C(C)C(=O)OCCOCCOCCOCCOC(=O)C(C)c2ccc(CC(C)C)cc2)cc1` (stereo not drawn) [Ibu2TEG, Tetraethylene glycol(ibuprofen)2], the “Size (nm)” value in data set [1] (setting [9]) was 186 ± 11 nm. For the same compound, the P.I. in data set [1] (setting [10]) came to 0.13 ± 0.02. The “Concentrations of the released drugs after 12 h incubation” value in the data set with Esterase (porcine liver) is reported as “comparable”. Besides, the “Cell number compared to the control culture” value in data set [7] is listed as “significant decrease in cell number”.
Consider `COc1ccc2cc([C@H](C)C(=O)OCCOCCOCCOCCOC(=O)CCCCC3CCSS3)ccc2c1` (stereo partly drawn) [ALA-TEG-Npx], for which the “Size (nm)” value in data set [1] (setting [9]) stood at 298 ± 6 nm. The P.I. in data set [1] (setting [10]) amounted to 0.05 ± 0.01. In addition, in the data set on esterase [4], the “Released parent drugs from the oxidized nanoprodrugs in comparison with non-oxidized controls” value came out at 87%. Also, in the data set with esterase [5], the “Increase of the amount of hydrolyzed drugs from oxidized vs non-oxidized nanoprodrugs” value was “three”. Besides, the “Induction phase of oxidative destabilization” value in data set [6] was “less apparent”. Besides, in the data set on Esterase (porcine liver), the “Parent drugs hydrolyzed / released from the nanoprodrugs after 1 h incubation” value is listed as “approximately 90%”, the “Concentration of the released drugs” value was found to be 454 µM and the Drug release amounted to 91%.
Regarding `COc1ccc2c(c1)c(CC(=O)OCCOCCOC(=O)CCCCC1CCSS1)c(C)n2C(=O)c1ccc(Cl)cc1` (stereo not drawn) [ALA-DEG-IND, (α-Lipoic acid)-diethylene glycol(indomethacin)], the “Size (nm)” value in data set [1] (setting [11]) is on record as 187 ± 54 nm. In addition, the P.I. in data set [1] (setting [12]) came out at 0.13.
Turning to `COc1ccc2cc(C(C)C(=O)OCCOCCOCCOCCOC(=O)C(C)c3ccc4cc(OC)ccc4c3)ccc2c1` (stereo not drawn) [Npx2TEG], the “Size (nm)” value in data set [1] (setting [9]) turned out to be 259 ± 9 nm. For the same compound, in data set [1] (setting [10]), the P.I. stood at 0.06 ± 0.02. Besides, the “Concentrations of the released drugs after 12 h incubation” value in the data set on Esterase (porcine liver) is given as “comparable”.

Values taken from patent publication US8603531B2, “Nanometer-sized prodrugs of NSAIDs” (Cedars-Sinai Medical Center, priority 2008, dated 2013).
